The record followed here is patent US11028090B2 (Dong Wha Pharm. Co., Ltd., priority 2017, dated 2021).

Where two headings read alike, the source gives them in different places.

Test [1] relates to acute myelogenous leukemia cells (MV-4-11 cells). Description: Cytotoxicity to acute myelogenous leukemia cells (MV-4-11 cells), CCK-8. The settings on record: Homo sapiens, MV4-11, 72 h.
For test [2], the target named is BRD4 (BD1+BD2) bromodomain (Homo sapiens (Human), UniProt O60885). Description: BRD4 binding inhibition (AlphaScreen, GST-BRD4 vs tetraacetylated histone H4 peptide). Summed up: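 AlphaScreen read after 30 min dark incubation at room temperature with glutathione acceptor/streptavidin donor beads (10 μg/ml each). The beads were added to compound plus 100 nM biotin-H4 (K5,8,12,16-acetyl) peptide and 100 nM GST-BRD4 BD1+BD2 in pH 7.4 HEPES/Tween/BSA/DTT buffer.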
On the technique in general: Bead proximity is the source of the signal in Alpha formats.

Setting [3] is: read-out: IC50, cytotoxicity against acute myelogenous leukemia cells.
Where [4] appears, read: read-out: MV-4-11 Cytotoxicity IC50.
Setting [5] is: GST-BRD4 (BD1+BD2) / biotinylated acetyl-histone H4 (Lys5,8,12,16) peptide, read-out: IC50, BRD4 binding inhibition.
Setting [6] is: GST-BRD4 (BD1+BD2) vs biotinylated acetyl-histone H4 peptide, AlphaScreen, read-out: BRD4 IC50.

`COc1ccc2c(c1)nc(NCCCCNC(=O)OC1CCCC1)c1nnc(C)n12` [Example 332, [4-(7-methoxy-1-methyl-[1,2,4]triazolo[4,3-a]quinoxaline-4-ylamino)-butyl]-carbamic acid cyclopentylester]: the IC50 in test [1] (setting [3]) was no more than 200 nM; in test [1] (setting [4]), 10 nM; in test [2] (setting [5]) it was no more than 50 nM; in test [2] (setting [6]) it was 17 nM.

Turning to `COc1ccc2c(c1)nc(NCCCCNC(=O)Oc1ccccc1)c1nnc(C)n12` [Example 333, [4-(7-methoxy-1-methyl-[1,2,4]triazolo[4,3-a]quinoxaline-4-ylamino)-butyl]-carbamic acid phenylester], the IC50 in test [1] (setting [3]) is no more than 200 nM; in test [1] (setting [4]) it was 110 nM; in test [2] (setting [6]), 18 nM; in test [2] (IC50, BRD4 binding inhibition, GST-BRD4 (BD1+BD2) / biotinylated acetyl-histone H4 (Lys5,8,12,16) peptide), no more than 50 nM.

As to `COc1ccc2c(c1)nc(NCCCCNC(=O)NC1CCCCC1)c1nnc(C)n12` [Example 335, 1-cyclohexyl-3-[4-(7-methoxy-1-methyl-[1,2,4]triazolo[4,3-a]quinoxaline-4-ylamino)-butyl]-urea], the IC50 in test [1] (setting [3]) was no more than 200 nM; in test [1] (setting [4]), 40 nM; in test [2] (setting [5]), no more than 50 nM; in test [2] (setting [6]), 16 nM.

Consider `COc1ccc2c(c1)nc(NCCCCNC(=O)SC(C)C)c1nnc(C)n12` [Example 336, [4-(7-methoxy-1-methyl-[1,2,4]triazolo[4,3-a]quinoxaline-4-ylamino)-butyl]-thiocarbamic acid-S-isopropyl ester], for which the IC50 in test [1] (setting [3]) is no more than 200 nM; in test [1] (setting [4]), 80 nM; in test [2] (setting [5]) it was no more than 50 nM; in test [2] (setting [6]), 33 nM.

On to `Cc1nnc2c(NCCCCNC(=O)CC(C)C)nc3cc(O)ccc3n12` [Example 340, N-[4-(7-hydroxy-1-methyl-[1,2,4]triazolo[4,3-a]quinoxaline-4-ylamino)-butyl]-3-methyl-butyramide], for which the IC50 in test [1] (setting [3]) is no more than 200 nM; in test [1] (setting [4]), 54 nM; in test [2] (setting [5]) it was no more than 50 nM; in test [2] (setting [6]), 23 nM.

With `Cc1nnc2c(NCCCCNC(=O)CC(C)C)nc3cc(OCc4ccc(C#N)cc4)ccc3n12` [Example 341, N-{4-[7-(4-cyano-benzyloxy)-1-methyl-[1,2,4]triazolo[4,3-a]quinoxaline-4-ylamino]-butyl}-3-methyl-butyramide], the half-inhibitory concentration (IC50) in test [1] (setting [3]) was no more than 200 nM; in test [1] (setting [4]), 52 nM; in test [2] (setting [6]), 71 nM.

Turning to `Cc1nnc2c(NCCCCNC(=O)CC(C)C)nc3cc(OCCCC#N)ccc3n12` [Example 342, N-{4-[7-(3-cyano-propoxy)-1-methyl-[1,2,4]triazolo[4,3-a]quinoxaline-4-ylamino]-butyl}-3-methyl-butyramide], the IC50 in test [1] (setting [3]) is no more than 200 nM; in test [1] (setting [4]), 28 nM; in test [2] (setting [6]), 56 nM.

With `Cc1nnc2c(NCCCCNC(=O)CC(C)C)nc3cc(OCC4CCCCO4)ccc3n12` (stereo not shown) [Example 343, 3-methyl-N-{4-[1-methyl-7-(tetrahydro-pyran-2-yl-methoxy)-[1,2,4]triazolo[4,3-a]quinoxaline-4-ylamino]-butyl}-butyramide], the half-maximal inhibitory concentration (IC50) is no more than 200 nM in test [1] (setting [3]), 120 nM in test [1] (setting [4]), no more than 50 nM in test [2] (setting [5]) and 36 nM in test [2] (setting [6]).

For the compound `Cc1nnc2c(NCCCCNC(=O)CC(C)C)nc3cc(OC4CCOCC4)ccc3n12` [Example 344, 3-methyl-N-{4-[1-methyl-7-(tetrahydro-pyran-4-yloxy)-[1,2,4]triazolo[4,3-a]quinoxaline-4-ylamino]-butyl}-butyramide], the IC50 in test [1] (setting [3]) is no more than 200 nM; in test [1] (setting [4]) it was 121 nM; in test [2] (setting [5]), no more than 10 nM; in test [2] (setting [6]), 10 nM.

Turning to `Cc1nnc2c(NCCCCNC(=O)CC(C)C)nc3cc(OCc4ccccc4)ccc3n12` [Example 346, N-[4-(7-benzyloxy-1-methyl-[1,2,4]triazolo[4,3-a]quinoxaline-4-ylamino)-butyl]-3-methyl-butyramide], the IC50 in test [1] (setting [3]) was no more than 200 nM; in test [1] (setting [4]) it was 79 nM; in test [2] (setting [5]) it was no more than 50 nM; in test [2] (setting [6]), 22 nM.

With `Cc1nnc2c(NCCCCNC(=O)CC(C)C)nc3cc(OCc4ccc(-c5nnn(C)n5)cc4)ccc3n12` [Example 349, 3-methyl-N-(4-{1-methyl-7-[4-(2-methyl-2H-tetrazolo-5-yl)-benzyloxy]-[1,2,4]triazolo[4,3-a]quinoxaline-4-ylamino}-butyl)-butyramide], the values for the IC50 in test [1] (setting [3]), in test [1] (setting [4]) and in test [2] (setting [6]) were no more than 200 nM, 160 nM and 55 nM, respectively.

Consider `CSc1ccc2c(c1)nc(NCCCCNC(=O)OC(C)(C)C)c1nnc(C)n12` [Example 354, [4-(1-methyl-7-methylsulfanyl-[1,2,4]triazolo[4,3-a]quinoxaline-4-ylamino)-butyl]-carbamic acid-tert-butylester], for which the IC50 in test [1] (setting [4]) is 472 nM; in test [2] (setting [6]) it was 56 nM.

Regarding `CSc1ccc2c(c1)nc(NCCCCNC(=O)[C@@H](F)C(C)C)c1nnc(C)n12` [Example 357, 2-(S)-fluoro-3-methyl-N-[4-(1-methyl-7-methylsulfanyl-[1,2,4]triazolo[4,3-a]quinoxaline-4-ylamino)-butyl]-butyramide], the IC50 is no more than 200 nM in test [1] (setting [3]), 44 nM in test [1] (setting [4]) and 62 nM in test [2] (setting [6]).

For the compound `CSc1ccc2c(c1)nc(NCCCCNC(=O)[C@@H](O)C(C)C)c1nnc(C)n12` [Example 358, 2-(S)-hydroxy-3-methyl-N-[4-(1-methyl-7-methylsulfanyl-[1,2,4]triazolo[4,3-a]quinoxaline-4-ylamino)-butyl]-butyramide], the 50% inhibitory concentration (IC50) is 160 nM in test [1] (setting [4]), no more than 10 nM in test [2] (setting [5]) and 7 nM in test [2] (setting [6]).

As for `COCCOc1ccc2c(c1)nc(NCCCCNC(=O)CC(C)C)c1nnc(C)n12` [Example 365, N-{4-[7-(2-methoxy-ethoxy)-1-methyl-[1,2,4]triazolo[4,3-a]quinoxaline-4-ylamino]-butyl}-3-methyl-butyramide], the half-inhibitory concentration (IC50) in test [1] (setting [3]) is no more than 200 nM; in test [1] (setting [4]), 60 nM; in test [2] (setting [5]) it was no more than 50 nM; in test [2] (setting [6]), 13 nM.

As for `COCCOc1ccc2c(c1)nc(NCCCCNC(=O)OC(C)C)c1nnc(C)n12` [Example 366, {4-[7-(2-methoxy-ethoxy)-1-methyl-[1,2,4]triazolo[4,3-a]quinoxaline-4-ylamino]-butyl}-carbamic acid isopropylester], the 50% inhibitory concentration (IC50) in test [1] (setting [3]) was no more than 200 nM; in test [1] (setting [4]) it was 110 nM; in test [2] (setting [5]) it was no more than 50 nM; in test [2] (setting [6]), 16 nM.

On to `CCCOC(=O)NCCCCNc1nc2cc(OCCOC)ccc2n2c(C)nnc12` [Example 367, {4-[7-(2-methoxy-ethoxy)-1-methyl-[1,2,4]triazolo[4,3-a]quinoxaline-4-ylamino]-butyl}-carbamic acid propylester], for which the IC50 was 350 nM in test [1] (setting [4]), no more than 10 nM in test [2] (setting [5]) and 5 nM in test [2] (setting [6]).

For the compound `CCC(C)OC(=O)NCCCCNc1nc2cc(OCCOC)ccc2n2c(C)nnc12` (stereo not shown) [Example 368, {4-[7-(2-methoxy-ethoxy)-1-methyl-[1,2,4]triazolo[4,3-a]quinoxaline-4-ylamino]-butyl}-carbamic acid-sec-butylester], the IC50 in test [1] (setting [3]) was no more than 200 nM; in test [1] (setting [4]), 140 nM; in test [2] (setting [5]) it was no more than 10 nM; in test [2] (setting [6]) it was 10 nM.

The IC50 is the point on the concentration scale where inhibition reaches its midpoint.
